This note sets out measurements from ChEMBL document CHEMBL5154638, “Molecular Plasticity of Crystalline CK2α' Leads to KN2, a Bivalent Inhibitor of Protein Kinase CK2 with Extraordinary Selectivity” (J Med Chem, 2022).

The test system of one data set is HeLa. Briefly: cells. To be noted: Homo sapiens, 24 h.
Another data set is described as follows: in vitro. To be noted: human, HEK293 cells.

Usually EC50 stands for the concentration that produces a half-maximal response. A low value points to higher potency in that assay. In turn, `O=C(O)c1ccc2c(c1)nc(Nc1cccc(Cl)c1)c1ccncc12` [SILMITASERTIB] showed a concentration giving a half-maximal response (EC50) in the data set with HeLa of 2.1 µM.

Consider `O=C(CCC(=O)NCCc1ccc(Cl)c(Cl)c1)NCCCCn1cnc2c(Br)c(Br)c(Br)c(Br)c21`, for which the concentration for a half-maximal effect (EC50) at 24 h in “in vitro” was 15.9 µM. In the data set with HeLa, this molecule registered an EC50 of 6.19 µM.
